# Measurements as given in patent US9974856B2, “Method of treating androgen deficiency in women” (Parapharm Ltd., priority 2009, dated 2018).
# System: human subject with diagnosed osteopenia
# Assay: Mineral bone density (forearm scanner DXT-200) and serum calcium in a subject with osteopenia
# Format: in vivo
# Settings: after a one-month break in the administration, following six-month course of 1 g 3 times a day
# Procedure: A human subject. The mineral bone density of T−1.4 was measured in the distal antibrachium by means of the forearm scanner DXT-200 available from Osteometer MediTech, Inc. Osteopenia was diagnosed and 1 g of calcium gluconate was administered 3 times a day. A six-month course of preventive medication was conducted. […] That is, the mineral bone density (MBD) became less. […] For reference: MBD normal value—the values of T criterion with a standard deviation of +1 to −1 from the peak bone mass; • 1st degree osteopenia—MBD of −1 to −1.5; • 2nd degree osteopenia—MBD of −1.5 to −2; • 3rd degree osteopenia—MBD of −2 to −2.5; • 1st degree osteoporosis—MBD of −2.5 and less without fractures; • 2nd degree osteoporosis—MBD of −2.5 and less with osteoporotic bone fractures. The densitometric T scale presents the number of standard deviations up and down an average bone mass value. The T criterion decreases in parallel with a gradual reduction in the bone mass with age and is used to evaluate the MBD in adults.
# The same human subject with diagnosed osteopenia and the mineral bone density of T −1.6 was administered one capsule of the claimed biologically active food additive 3 times a day A six-month preventive medication course was conducted following the pattern of one-month administration/one-month break. The mineral bone density increased to T −1.2. The serum calcium value normalized. […]
substance,measurement,value
calcium gluconate,serum calcium value,below the normal value
